Test results as given in article PMC3610872, “Full and Partial Agonists of Thromboxane Prostanoid Receptor Unveil Fine Tuning of Receptor Superactive Conformation and G Protein Activation” (PLoS ONE, 2013).
Where a chain is given by its changes, count along the chain named. Marks after values point to notes of the source that are not given here.

Legend:
WT human TP receptor = target: T1, WT human TP receptor (Homo sapiens, UniProt P21731); experiment: [3H]SQ29,548 radioligand binding (mixed-type and heterologous competition), WT receptor; settings: HEK293 cells, value ±%CV
T1 construct: expressed in transfected cells; host or cells: HEK293
T1 sequence (P21731 1-343): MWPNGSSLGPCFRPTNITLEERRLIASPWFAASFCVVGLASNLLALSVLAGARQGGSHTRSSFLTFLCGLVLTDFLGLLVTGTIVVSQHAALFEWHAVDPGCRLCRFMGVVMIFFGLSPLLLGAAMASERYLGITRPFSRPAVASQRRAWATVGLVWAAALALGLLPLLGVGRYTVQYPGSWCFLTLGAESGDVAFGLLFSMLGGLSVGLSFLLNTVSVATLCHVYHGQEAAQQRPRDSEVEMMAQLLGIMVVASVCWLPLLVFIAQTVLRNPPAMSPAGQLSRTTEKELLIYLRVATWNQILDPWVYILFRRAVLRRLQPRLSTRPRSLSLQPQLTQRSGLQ
Description: (§1) Receptor expression and functional activity were monitored 48 hours after transfection. […] Heterologous competition studies involved concentrations of the indicated unlabeled ligands extending from 0.1 nM to 30 µM. After 30 min incubation at 25 °C, the reaction was stopped by aspiration of the medium, cells were washed with ice-cold PBS containing 0.2% (w/v) BSA and lysed in 0.5 N NaOH. Radioactivity was measured by liquid scintillation counting. Binding data were analyzed as described in Data and Statistical Analysis. Quantification of the total labeled inositol phosphates (IP) accumulation was performed using a conventional gravity flow column chromatography, as described previously, [19]. Briefly, the day before the assay, cells were labeled with 0,5 µCi of [myo-2-^3H]inositol (17 Ci/mmol) for 18–20 hours in serum-free, inositol-free DMEM containing 20 mM HEPES buffer, pH 7.4, and 0.5% (w/v) Albumax I. The day of the assay, media was replaced with serum-free, inositol-free DMEM containing 25 mM LiCl and cells stimulated for 30 min with the indicated agonists. After removal of the medium, cells were lysed with 10 mM formic acid and lysates were applied onto an anion exchange AG 1X-8 column, formate form, 200–400 mesh. The total IP fraction was then eluted with 2 M ammonium formate/formic acid buffer at pH 5 and radioactivity determined by liquid scintillation counting. Rescue experiments were performed essentially as above, except for a 18 hours incubation step with 1 µΜof SQ29,584 followed by its removal by washing three times with ice-cold PBS containing 1 mM MgCl2 and 0.1 mM CaCl2 before starting the experiment.
(§2) All average results are presented as mean±S.E. When indicated, ANOVA followed by post-hoc test for multiple comparisons was performed. Data from radioligand binding were evaluated by a nonlinear, least-squares curve-fitting procedure using GraphPad Prism version 4, implemented with the n-ligand m-binding site model, as described in the LIGAND computer program. Concentration-response curves were evaluated using Prism 4, which use the four parameters logistic model as described in the ALLFIT program. Parameter errors are all expressed in percentage coefficient of variation (%CV) and calculated by simultaneous analysis of at least two different independent experiments performed in duplicate or triplicate. Parameter comparison has been performed on the base of the F test for extra sum of square principle. All curves shown are computer generated.
(§3) Thus, transfection conditions were adjusted to secure equivalent levels of receptor expression for WT and mutants as previously described, [17], [19]. […] All the experiments were conducted within this range of receptor expression, if not specified differently.

[1] = target: T2, E129V mutant human TP receptor (Homo sapiens, UniProt P21731, E129V); experiment: [3H]SQ29,548 radioligand binding (mixed-type and heterologous competition), E129V mutant; settings: HEK293 cells, E129V, value ±%CV
T2 construct: expressed in transfected cells; host or cells: HEK293
T2 sequence (P21731 1-343 E129V): T1 sequence (P21731 1-343) with E129V
Description: as §1, §2, §3

[2] = target: T3, E240V mutant human TP receptor (Homo sapiens, UniProt P21731, E240V); experiment: [3H]SQ29,548 radioligand binding (mixed-type), E240V mutant; settings: HEK293 cells, value ±%CV
T3 construct: expressed in transfected cells; host or cells: HEK293
T3 sequence (P21731 1-343 E240V): T1 sequence (P21731 1-343) with E240V
Description: as §1, with “Rescue experiments were performed essentially as above, except for a 18 hours incubation step with 1 µΜof SQ29,584 followed by its removal by washing three times with ice-cold PBS containing 1 mM MgCl2 and 0.1 mM CaCl2 before starting the experiment.” left out
as §2, with “Parameter comparison has been performed on the base of the F test for extra sum of square principle. All curves shown are computer generated.” left out

[3] = target: T4, E129/240V double mutant human TP receptor (Homo sapiens, UniProt P21731, E129V/E240V); experiment: [3H]SQ29,548 radioligand binding (mixed-type), E129/240V double mutant; settings: HEK293 cells, no Gαq, before SQ29,548 rescue, value ±%CV
T4 construct: expressed in transfected cells; host or cells: HEK293
T4 sequence (P21731 1-343 E129V/E240V): T1 sequence (P21731 1-343) with E129V, E240V
Description: Receptor expression and functional activity were monitored 48 hours after transfection. […] Heterologous competition studies involved concentrations of the indicated unlabeled ligands extending from 0.1 nM to 30 µM. After 30 min incubation at 25 °C, the reaction was stopped by aspiration of the medium, cells were washed with ice-cold PBS containing 0.2% (w/v) BSA and lysed in 0.5 N NaOH. Radioactivity was measured by liquid scintillation counting. Binding data were analyzed as described in Data and Statistical Analysis. Quantification of the total labeled inositol phosphates (IP) accumulation was performed using a conventional gravity flow column chromatography, as described previously, [19]. […] The total IP fraction was then eluted with 2 M ammonium formate/formic acid buffer at pH 5 and radioactivity determined by liquid scintillation counting. […]
All average results are presented as mean±S.E. When indicated, ANOVA followed by post-hoc test for multiple comparisons was performed. Data from radioligand binding were evaluated by a nonlinear, least-squares curve-fitting procedure using GraphPad Prism version 4, implemented with the n-ligand m-binding site model, as described in the LIGAND computer program. Concentration-response curves were evaluated using Prism 4, which use the four parameters logistic model as described in the ALLFIT program. […]

Bmax (WT human TP receptor; Gαq 3x): 0.90±46 pmol/mg prot | Bmax (WT human TP receptor; Gαq 5x): 0.95±39 pmol/mg prot | Bmax (WT human TP receptor; no Gαq cotransfection): 0.44±32 pmol/mg prot | Bmax ([1]; Gαq 3x): 0.38±21 pmol/mg prot | Bmax ([1]; Gαq 5x): 0.39±30 pmol/mg prot | Bmax ([1]; no Gαq cotransfection): 0.53±16 pmol/mg prot | Bmax ([2]; Gαq 3x): 0.65±52 pmol/mg prot | Bmax ([2]; Gαq 5x): 0.49±34 pmol/mg prot | Bmax ([2]; no Gαq cotransfection): 0.97±31 pmol/mg prot | Bmax [3]: 0.04±68 ^b pmol/mg prot
Compound: O=C(O)CCC/C=C\C[C@@H]1[C@H](CNNC(=O)Nc2ccccc2)[C@@H]2CC[C@H]1O2 [[^3H]SQ29,548, [5,6-^3H]SQ29,548]
